From patent publication US8030443B2, “Squamous cell carcinoma antigen-derived peptide binding to HLA-A24 molecule” (Kurume University, priority 2005, dated 2011)

System: PBMCs from HLA-A24^+ cancer patients and HDs
Test: Induction of peptide-specific CTLs from PBMCs, IFN-γ ELISA against peptide-pulsed C1R-A24 cells
Assay type: cell-based, human
Details: for Total: healthy donors with induction of peptide-specific CTLs / donors tested: 8 HLA-A24^+ healthy donors; for Total: healthy donors with induction of peptide-specific CTLs / donors tested / Total: cancer patients with induction of peptide-specific CTLs / patients tested: positive when more than 50 pg/ml IFN-γ with p<0.05; for Total: cancer patients with induction of peptide-specific CTLs / patients tested: 20 HLA-A24^+ cancer patients; for IFN-γ Production: HIV peptide background subtracted, only significant values shown, — otherwise
Description: PBMCs from HLA-A24^+ cancer patients and HDs were used for the CTL induction assay. For the induction of peptide-specific CTLs, PBMCs (1.5×10^5 cells/well) were incubated with 10 μg/ml of each peptide in four different wells of a 96-well microculture plate (Nunc) in 200 μl of culture medium containing interleukin (IL)-2, as reported previously (Non-Patent Literature 18). Every 3 or 4 days, half the culture medium was removed and replaced with new medium containing the corresponding peptide (20 μg/ml) and 100 U/ml IL-2. On the 14th day, the cells from each well were independently harvested, washed, separated into four wells, and tested for their ability to produce interferon (IFN)-γ in response to C1R-A24 cells pulsed with a corresponding peptide or a negative control HIV peptide in the duplicate assays. C1R-A24 is an HLA-A2402-expressing subline of C1R lymphoma (Dr. M. Takiguchi, Kumamoto University, Japan). After an 18-h incubation of C1RA-24, the supernatant was collected, and the level of IFN-γ was determined by ELISA.
Whether or not the SCCA107, SCCA112, SCCA215, and SCCA286 peptides had the potential to induce peptide-specific CTLs from the PBMCs of 20 HLA-A24^+ cancer patients and 8 HLA-A24^+ healthy donors was investigated. The group of twenty cancer patients consisted of 4 esophageal SCC patients, 4 cervical SCC patients, 4 lung cancer patients (2 adenocarcinomas, one small cell carcinoma, and one squamous cell carcinoma), 4 gastric adenocarcinoma patients, and 4 colon adenocarcinoma patients. The assay was carried out in quadruplicate. The cultured cells in one well were separated into 4 wells, and two wells were used for the SCCA peptide-pulsed C1R-A24 cells, and the other two were used for the HIV peptide-pulsed C1R-A24 cells.

Sequence | Total: healthy donors with induction of peptide-specific CTLs / donors tested | Total: cancer patients with induction of peptide-specific CTLs / patients tested | Total: cancer patients with induction of peptide-specific CTLs / patients tested (listed as SCCA107) | IFN-γ Production (PBMCs of HLA-A24^+ healthy donor 7) [pg/mL] | IFN-γ Production (PBMCs of HLA-A24^+ patient 2, Esophagus) [pg/mL] | IFN-γ Production (PBMCs of HLA-A24^+ patient 6, Cervix of uterus) [pg/mL] | IFN-γ Production (PBMCs of HLA-A24^+ patient 13, Stomach) [pg/mL] | Total: cancer patients with induction of peptide-specific CTLs / patients tested (listed as SCCA286) | IFN-γ Production (PBMCs of HLA-A24^+ patient 4, Esophagus) [pg/mL] | IFN-γ Production (PBMCs of HLA-A24^+ patient 7, Cervix of uterus) [pg/mL]
LFGEKTYLFL (SCCA 107-116 peptide) [SCCA-derived peptide, position 107-116] | 1/8 | 3/20 | 3 of 20 | 259 | 84 | 105 | 500 | – | – | –
RFKVEESYDL (SCCA 286-295 peptide) [SCCA-derived peptide, position 286-295] | 0/8 | 3/20 | – | – | – | – | – | 3 of 20 | 97 | 169
